Earlier results on four molecules are cited in patent publication US20080171083A1, “Pharmaceutical Compositions Comprising an Amphiphilic Starch” (VECTURE LIMITED, priority 2004, published 2008).

Molecules are shown by their SMILES. Where a name gives a salt, the structure may show the parent alone.

The conditions of this series: class-1 high solubility, class-2 highly permeable, low solubility, class-3 low permeability, class-4 low solubility.
Take `COc1ccccc1OCCNCC(O)COc1cccc2[nH]c3ccccc3c12` (stereo not shown) [Carvedilol]: the “BCS class (solubility / permeability)” value is on record as “class-4”.
For the molecule `NCC1(CC(=O)O)CCCCC1` [Gabapentin], the “BCS class (solubility / permeability)” value is “class-3”.
Regarding `COc1ccc2c(c1)c(CC(=O)O)c(C)n2C(=O)c1ccc(Cl)cc1` [Indomethacin], the “BCS class (solubility / permeability)” value was “class-2”.
For the molecule `CC(C)NCC(O)COc1cccc2ccccc12` (stereo not shown) [propranolol hydrochloride], the “BCS class (solubility / permeability)” value is recorded as “class-1”.
